Experiment: Induction of CYP24A1 (unknown orgin) transcriptional activity trasfected in human MCF7 cells incuabted for 48 hrs by luciferase reporter gene assay

EC50	Structure (SMILES)
3 nM	C=C1/C(=C\C=C\c2cc(CCCCCC(C)(C)O)cc(CCCCCC(C)(C)O)c2)C[C@@H](O)C[C@@H]1O
5.6 nM	C=C1/C(=C\C=C(/CCCCCC(C)(C)O)c2cccc(CCCCCC(C)(C)O)c2)C[C@@H](O)C[C@@H]1O

From BindingDB's records for PubMed 36166643 (University of Santiago De Compostela, 2022)
